# According to patent US10702506B2, “Small molecule inhibitors of pendrin ion exchange and pharmaceutical compositions” (THE REGENTS OF THE UNIVERSITY OF CALIFORNIA, priority 2016, dated 2020):
# Biological target: T1, pendrin (Homo sapiens, UniProt O43511)
# T1 sequence (O43511 1-780): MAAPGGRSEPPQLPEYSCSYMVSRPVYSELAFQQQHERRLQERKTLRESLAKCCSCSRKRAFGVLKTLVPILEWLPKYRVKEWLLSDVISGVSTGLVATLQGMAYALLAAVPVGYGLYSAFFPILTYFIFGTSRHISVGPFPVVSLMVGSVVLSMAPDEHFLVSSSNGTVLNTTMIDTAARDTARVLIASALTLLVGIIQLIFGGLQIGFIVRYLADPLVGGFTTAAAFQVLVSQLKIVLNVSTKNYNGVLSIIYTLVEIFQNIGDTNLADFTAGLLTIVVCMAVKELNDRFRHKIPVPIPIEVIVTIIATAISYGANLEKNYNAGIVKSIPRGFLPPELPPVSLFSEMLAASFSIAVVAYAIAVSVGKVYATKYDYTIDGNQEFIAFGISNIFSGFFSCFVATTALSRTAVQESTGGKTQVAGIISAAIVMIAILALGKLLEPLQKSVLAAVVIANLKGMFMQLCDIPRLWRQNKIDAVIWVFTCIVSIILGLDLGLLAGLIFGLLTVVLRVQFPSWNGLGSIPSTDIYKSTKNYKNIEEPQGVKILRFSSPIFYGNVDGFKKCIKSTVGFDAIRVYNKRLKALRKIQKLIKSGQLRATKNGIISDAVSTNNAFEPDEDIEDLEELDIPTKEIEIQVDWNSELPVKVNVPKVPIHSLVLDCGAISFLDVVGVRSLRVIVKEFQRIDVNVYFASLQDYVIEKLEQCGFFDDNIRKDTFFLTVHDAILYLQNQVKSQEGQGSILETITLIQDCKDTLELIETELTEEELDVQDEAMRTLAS
# Assay: YFP (EYFP-HIF) fluorescence quenching assay of pendrin-mediated Cl− exchange (SCN−, I−, NO3−) in FRT cells; high-throughput screen
# Assay type: cell-based
# Set-up: expressed in transfected cells
# Conditions: FRT, 25 μM; read-out: Inh. (%), percentage inhibition of human pendrin
# Experimental: Fischer rat thyroid (FRT) cells were cultured in Kaign's modified Ham's F12 medium supplemented with 10% FBS, 2 mM L-glutamine, 100 U/ml penicillin, […], […] myo-inositol and […] ascorbic acid. For high-throughput screening, FRT cells were stably transfected with EYFP-H148Q/I152L/F46L (EYFP-HIF; in pcDNA3.1/Hygro (+)), isolated using 0.25 mg/ml hygromycin B, and then transfected with pcDNA3.1 (+) encoding human pendrin with clonal cell lines selected using 0.5 mg/ml G418.
# High-throughput screening was performed using a semi-automated screening platform (Beckman, Fullerton, Calif.) configured as described. FRT cells expressing human pendrin and EYFP-HIF were plated in 96-well black-walled, clear-bottom tissue culture plates (Corning, Corning, N.Y.) at a density of 20,000 cells/well, and cultured to confluence over 48 h. For screening, plates were washed twice with PBS (in mM: 137 NaCl, 2.7 KCl, 1.1 KH2PO4, 8.1 Na2HPO4, 0.9 CaCl2), 0.5 MgCl2) prior to addition of 100 μl PBS containing test compounds. Screening was done with ˜36,000 compounds from ChemDiv (San Diego, Calif.), TimTec (Newark, Del.), and Asinex (Winston-Salem, N.C.). After 10 min incubation with test compound, plates were transferred to a Tecan Infinite M1000 plate reader (Tecan, Morrisville, N.C.) for fluorescence assay of pendrin activity. The assay duration was 10 s with initial fluorescence intensity recorded for 2 s prior to addition of 100 μl of NaSCN-substituted PBS (137 mM NaCl replaced with NaSCN). All assay plates contained negative controls (DMSO). In some experiments Cl^− exchange for I^− or NO3^− was measured similarly using NaI and NaNO3-substituted PBS. Control experiments to measure basal ion transport rates were done in FRT cells expressing EYFP-HIF without pendrin.
# FRT cells were chosen for screening due to their low intrinsic permeability to anions that are transported by pendrin. As depicted in FIGS. 1A and 2A, pendrin activity was assayed from the kinetics of the halide-sensitive fluorescent protein EYFP-HIF in response to addition of a SCN^−-containing solution to drive pendrin-mediated Cl^−/SCN^−. Pendrin inhibition reduces the rate of EYFP-HIF quenching. PDSinh-A01 land PDSinh-C01 decreased pendrin-mediated Cl^−/SCN^− and Cl^−/I^− exchange in a concentration-dependent manner, as measured by YFP fluorescence quenching. […] Because the only previously-described pendrin inhibitor is the weakly active compound niflumic acid, no positive control was included in the screening plates.
row,Compound,inhibition at 25 µM [%]
1,CSc1ccc(NC(=O)N2CCc3c(c(COc4ccccc4)nn3C)C2)cc1,77
2,Cn1nc(COc2ccccc2)c2c1CCN(C(=O)Nc1ccc(Cl)cc1)C2,72
3,COc1ccc(NC(=O)N2CCc3c(c(COc4ccccc4)nn3C)C2)cc1F,69
4,Cn1nc(COc2ccc(F)cc2)c2c1CCN(C(=O)Nc1ccc(Cl)cc1)C2,66
5,Cc1ccc(NC(=O)N2CCc3c(c(COc4ccccc4)nn3C)C2)cc1C,64
6,Cc1ccc(NC(=O)N2CCc3c(c(COc4ccccc4)nn3C)C2)cc1,61
7,Cc1ccc(NC(=O)N2CCc3c(c(COc4ccc(F)cc4)nn3C)C2)cc1Cl,61
8,Cc1ccc(NC(=O)N2CCc3c(c(COc4ccc(F)cc4)nn3C)C2)cc1C,58
9,Cn1nc(COc2cccc(F)c2)c2c1CCN(C(=O)Nc1cccc(Cl)c1)C2,60
10,Cn1nc(COc2ccc(F)cc2)c2c1CCN(C(=O)Nc1cccc(C(F)(F)F)c1)C2,57
11,CCc1ccc(NC(=O)N2CCc3c(c(COc4ccccc4)nn3C)C2)cc1,54
12,Cn1nc(COc2ccc(F)cc2)c2c1CCN(C(=O)Nc1ccc(F)c(Cl)c1)C2,54
13,COc1ccc(NC(=O)N2CCc3c(c(COc4ccc(F)cc4)nn3C)C2)cc1F,53
14,CSc1cccc(NC(=O)N2CCc3c(c(COc4ccccc4)nn3C)C2)c1,45
15,Cc1ccc(NC(=O)N2CCc3c(c(COCc4cccc(F)c4)nn3C)C2)cc1Cl,49
16,Cc1ccc(NC(=O)N2CCc3c(c(COCc4ccc(F)cc4Cl)nn3C)C2)cc1C,48
17,CCc1ccc(NC(=O)N2CCc3c(c(COCc4ccc(F)cc4Cl)nn3C)C2)cc1,49
18,Cc1ccc(NC(=O)N2CCc3c(c(COCc4ccc(Cl)cc4)nn3C)C2)cc1C,49
19,Cc1cc(-c2cc(S(=O)(=O)NC3CCCc4ccccc43)c(C)s2)[nH]n1 (centres unmarked),53

# Biological target: T2, pendrin (Mus musculus, UniProt Q9R155)
# T2 sequence (Q9R155 1-780): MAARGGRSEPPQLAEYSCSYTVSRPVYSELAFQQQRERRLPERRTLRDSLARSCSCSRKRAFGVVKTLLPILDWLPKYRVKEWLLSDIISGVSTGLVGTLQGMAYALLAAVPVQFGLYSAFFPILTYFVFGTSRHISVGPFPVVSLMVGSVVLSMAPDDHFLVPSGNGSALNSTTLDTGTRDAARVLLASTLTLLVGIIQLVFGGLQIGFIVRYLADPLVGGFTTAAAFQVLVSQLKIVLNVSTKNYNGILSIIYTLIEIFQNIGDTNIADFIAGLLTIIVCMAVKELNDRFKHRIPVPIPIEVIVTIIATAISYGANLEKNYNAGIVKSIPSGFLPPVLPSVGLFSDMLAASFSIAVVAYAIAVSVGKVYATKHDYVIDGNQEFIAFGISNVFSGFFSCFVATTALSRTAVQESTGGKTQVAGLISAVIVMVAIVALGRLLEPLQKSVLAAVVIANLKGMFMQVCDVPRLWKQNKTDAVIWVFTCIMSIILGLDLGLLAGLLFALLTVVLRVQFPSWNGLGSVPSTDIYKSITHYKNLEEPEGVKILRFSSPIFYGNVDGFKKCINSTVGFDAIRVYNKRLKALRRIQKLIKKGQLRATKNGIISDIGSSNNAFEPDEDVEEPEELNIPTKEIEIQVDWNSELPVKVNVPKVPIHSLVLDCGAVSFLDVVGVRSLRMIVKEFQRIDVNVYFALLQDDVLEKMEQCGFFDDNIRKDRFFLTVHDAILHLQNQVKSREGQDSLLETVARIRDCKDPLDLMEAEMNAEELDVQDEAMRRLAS
# Assay: In vitro measurement of furosemide effect on pendrin activity
# Conditions: not given
row,Compound,effect on pendrin activity
1,NS(=O)(=O)c1cc(C(=O)O)c(NCc2ccco2)cc1Cl [furosemide],no effect
